Converted amounts (≈) assume the structure as drawn. Blank lines part the entries; values can stand above or below the compound they belong to.
Tests used:
[1] = tested on: S. aureus ATCC 106414 (VISA); assay: MIC, microdilution method (9.1); assay type: cell-based, Staphylococcus aureus; conditions: Staphylococcus aureus, read after 18 h, read-out: MIC
Description: (§1) The microdilution method recommended by the Clinical and Laboratory Standard Institute [M07-A8, Vol. 29, No. 2] was used. The activity of indolic compounds was tested against 29 bacterial strains belonging to 17 different species and 12 different genera (Staphylococcus, Streptococcus, Enterococcus, Listeria, Bacillus, Haemophilus, Escherichia, Klebsiella, Enterobacter, Serratia, Pseudomonas, and Acinetobacter). Bacterial inocula were prepared in Mueller Hinton broth (MH2, bioMérieux, Marcy L'Etoile, France), supplemented with 10% sheep blood for fastidious species (i.e., Streptococcus pneumoniae and Haemophilus influenzae). They were dispensed in 96 well microtiter plates (5×10^5 CFU/ml of final inoculum). Indolic compounds were added to the wells as to obtain two-fold serial concentrations (0.50-128 mg/L of final concentrations). Plates were incubated at 37° C. in ambient air, or at 37° C. in 5% CO2 enriched atmosphere for fastidious species. […] Drug-free cultures served as growth controls. Cultures receiving gentamicin, ciprofloxacin or cefotaxime served as positive controls.

[2] = tested on: S. aureus ATCC 25923; assay: MIC, microdilution method (9.1); assay type: cell-based, Staphylococcus aureus; conditions: Staphylococcus aureus, ATCC25923, read after 18 h, read-out: MIC
Description: as §1

[3] = tested on: S. aureus ATCC 29213; assay: MIC, microdilution method (9.1); assay type: cell-based, Staphylococcus aureus; conditions: Staphylococcus aureus, ATCC29213, read after 18 h, read-out: MIC
Description: as §1

[4] = tested on: S. aureus ATCC 33592 (MRSA); assay: MIC, microdilution method (9.1); assay type: cell-based, Staphylococcus aureus; conditions: Staphylococcus aureus, read after 18 h, read-out: MIC
Description: as §1

[5] = tested on: S. aureus ATCC 6538; assay: MIC, microdilution method (9.1); assay type: cell-based, Staphylococcus aureus; conditions: Staphylococcus aureus, ATCC6538, read after 18 h, read-out: MIC
Description: as §1

[6] = tested on: S. aureus ATCC 9144; assay: MIC, microdilution method (9.1); assay type: cell-based, Staphylococcus aureus; conditions: Staphylococcus aureus, ATCC9144, read after 18 h, read-out: MIC
Description: as §1

[7] = tested on: S. aureus CIP 103428; assay: MIC, microdilution method (9.1); assay type: cell-based, Staphylococcus aureus; conditions: Staphylococcus aureus, CIP103428, read after 18 h, read-out: MIC
Description: as §1

[8] = tested on: S. aureus CIP 65.25 (MRSA); assay: MIC, microdilution method (9.1); assay type: cell-based, Staphylococcus aureus; conditions: Staphylococcus aureus, read after 18 h, read-out: MIC
Description: as §1

[9] = tested on: S. aureus CIP 65.6; assay: MIC, microdilution method (9.1); assay type: cell-based, Staphylococcus aureus; conditions: Staphylococcus aureus, CIP65, read after 18 h, read-out: MIC
Description: as §1

[10] = tested on: S. aureus SA-1199B; assay: MIC, microdilution method (9.1); assay type: cell-based, Staphylococcus aureus; conditions: Staphylococcus aureus, SA1199B, 18 h
Description: as §1

[11] = tested on: S. epidermidis ATCC 12228; assay: MIC, microdilution method (9.1); assay type: cell-based, Staphylococcus epidermidis; conditions: Staphylococcus epidermidis, ATCC12228, read after 18 h, read-out: MIC
Description: as §1

[12] = tested on: S. epidermidis CIP 103627; assay: MIC, microdilution method (9.1); assay type: cell-based, Staphylococcus epidermidis; conditions: Staphylococcus epidermidis, CIP103627, read after 18 h, read-out: MIC
Description: as §1

[13] = tested on: S. epidermidis CIP 81.55; assay: MIC, microdilution method (9.1); assay type: cell-based, Staphylococcus epidermidis; conditions: Staphylococcus epidermidis, CIP81, read after 18 h, read-out: MIC
Description: as §1

[14] = tested on: S. pneumoniae ATCC 6303; assay: MIC, microdilution method (9.1); assay type: cell-based, Streptococcus pneumoniae; conditions: Streptococcus pneumoniae, ATCC6303, 10% sheep blood, 5% CO2, 18 h, read-out: MIC
Description: as §1

[15] = tested on: S. agalactiae (group B) ATCC 12400; assay: MIC, microdilution method (9.1); assay type: cell-based, Streptococcus agalactiae; conditions: Streptococcus agalactiae, ATCC12400, 18 h, read-out: MIC
Description: as §1

[16] = tested on: S. pyogenes (group A) CIP 104226; assay: MIC, microdilution method (9.1); assay type: cell-based, Streptococcus pyogenes; conditions: Streptococcus pyogenes, CIP104226, 18 h, read-out: MIC
Description: as §1

[17] = tested on: S. mitis CIP 103335; assay: MIC, microdilution method (9.1); assay type: cell-based, Streptococcus mitis; conditions: Streptococcus mitis, CIP103335, 18 h, read-out: MIC
Description: as §1

[18] = tested on: E. faecium CIP 54.32; assay: MIC, microdilution method (9.1); assay type: cell-based, Enterococcus faecium; conditions: Enterococcus faecium, CIP54, 18 h, read-out: MIC
Description: as §1

[19] = tested on: E. faecalis ATCC 29212; assay: MIC, microdilution method (9.1); assay type: cell-based, Enterococcus faecalis; conditions: Enterococcus faecalis, ATCC29212, 18 h, read-out: MIC
Description: as §1

[20] = tested on: Acinetobacter baumanii ATCC 19606; assay: MIC, microdilution method (9.1); assay type: cell-based; conditions: Acinetobacter baumannii, ATCC19606, 18 h, read-out: MIC
Description: as §1

[21] = tested on: Bacillus subtilis CIP 5262; assay: MIC, microdilution method (9.1); assay type: cell-based; conditions: CIP5262, 18 h, read-out: MIC
Description: as §1

[22] = tested on: Enterobacter cloacae ATCC13047; assay: MIC, microdilution method (9.1); assay type: cell-based; conditions: 18 h
Description: as §1

[23] = tested on: Escherichia coli ATCC 25922; assay: MIC, microdilution method (9.1); assay type: cell-based; conditions: ATCC25922, 18 h
Description: as §1

[24] = tested on: Haemophilus influenzae ATCC 49766; assay: MIC, microdilution method (9.1); assay type: cell-based; conditions: ATCC49766; Haemophilus influenzae ATCC 49766; 10% sheep blood, 5% CO2; 18 h; read-out: MIC
Description: as §1

[25] = tested on: Klebsiella pneumoniae API ATCC 35657; assay: MIC, microdilution method (9.1); assay type: cell-based; conditions: ATCC35657, 18 h, read-out: MIC
Description: as §1

[26] = tested on: Listeria innocua CIP 80.11; assay: MIC, microdilution method (9.1); assay type: cell-based; conditions: CIP80, 18 h, read-out: MIC
Description: as §1

[27] = tested on: Pseudomonas aeruginosa CIP 5933; assay: MIC, microdilution method (9.1); assay type: cell-based; conditions: CIP5933, 18 h, read-out: MIC
Description: as §1

[28] = tested on: S. pneumoniae ATCC 49619; assay: MIC, microdilution method (9.1); assay type: cell-based; conditions: Streptococcus pneumoniae, ATCC49619, 10% sheep blood, 5% CO2, 18 h
Description: as §1

[29] = tested on: Serratia marcescens CIP 103551; assay: MIC, microdilution method (9.1); assay type: cell-based; conditions: CIP103551, 18 h
Description: as §1

[30] = tested on: HCT116 (human colon tumor); assay: In vitro cytotoxicity; assay type: cell-based; conditions: read-out: % of cellular growth inhibition; for inhibition at 10 µM: HCT-116, 10^−5 M; for inhibition at 1 µM: HCT-116, 10^−6 M
Description: (§2) In vitro cytotoxicity was assayed on three cell lines—KB (human mouth carcinoma), MCR5 (human lung fibroblast) and HCT116 (human colon tumor). Results are presented in table IV as % of cellular growth inhibition in presence of 10^−5 M and 10^−6 M of the tested bis-indolic derivatives.

[31] = tested on: KB (human mouth carcinoma); assay: In vitro cytotoxicity; assay type: cell-based; conditions: read-out: % of cellular growth inhibition; for inhibition at 10 µM: 10^−5 M; for inhibition at 1 µM: 10^−6 M
Description: as §2

[32] = tested on: MRC5 (human lung fibroblast); assay: In vitro cytotoxicity; assay type: cell-based; conditions: read-out: % of cellular growth inhibition; for inhibition at 10 µM: 10^−5 M; for inhibition at 1 µM: 10^−6 M
Description: as §2

[33] = tested on: HCT116 (human colon tumor); assay: In vitro cytotoxicity; assay type: cell-based; conditions: HCT-116, HCT116, from 100 μM to 0.005 μM in DMSO, duplicate

SMILES: CC(C)(C)OC(=O)NCC(NC(=O)c1c[nH]c2ccccc12)c1c[nH]c2cc(Br)ccc12 (centres unmarked) [Compound 3d, tert-Butyl (2-(6-bromo-1H-indol-3-yl)-2-(1H-indolyl-3-carboxamido)ethyl)carbamate]
MIC [1]: 8 µg/mL (≈ 16.1 µM) | MIC [2]: 8 µg/mL (≈ 16.1 µM) | MIC [3]: 8 µg/mL (≈ 16.1 µM) | MIC [4]: 8 µg/mL (≈ 16.1 µM) | MIC [5]: 8 µg/mL (≈ 16.1 µM) | MIC [6]: 8 µg/mL (≈ 16.1 µM) | MIC [7]: 8 µg/mL (≈ 16.1 µM) | MIC [8]: 8 µg/mL (≈ 16.1 µM) | MIC [9]: 8 µg/mL (≈ 16.1 µM) | MIC [10]: 8 µg/mL (≈ 16.1 µM) | MIC [11]: 16 µg/mL (≈ 32.2 µM) | MIC [12]: 16 µg/mL (≈ 32.2 µM) | MIC [13]: 16 µg/mL (≈ 32.2 µM) | MIC [14]: 64 µg/mL (≈ 129 µM) | MIC [15]: 64 µg/mL (≈ 129 µM) | MIC [16]: 64 µg/mL (≈ 129 µM) | MIC [17]: 64 µg/mL (≈ 129 µM) | MIC [18]: 64 µg/mL (≈ 129 µM) | MIC [19]: > 128 µg/mL | MIC [20]: > 128 µg/mL | MIC [21]: 64 µg/mL (≈ 129 µM) | MIC [22]: > 128 µg/mL | MIC [23]: > 128 µg/mL | MIC [24]: 64 µg/mL (≈ 129 µM) | MIC [25]: > 128 µg/mL | MIC [26]: 32 µg/mL (≈ 64.3 µM) | MIC [27]: > 128 µg/mL | MIC [28]: 64 µg/mL (≈ 129 µM) | MIC [29]: > 128 µg/mL | inhibition at 10 µM [30]: 73 ± 3% | inhibition at 1 µM [30]: 9% | inhibition at 10 µM [31]: 67 ± 3% | inhibition at 1 µM [31]: 0% | inhibition at 10 µM [32]: 73 ± 6% | inhibition at 1 µM [32]: 0%

MIC [1]: 16 µg/mL (≈ 40 µM) | MIC [2]: 16 µg/mL (≈ 40 µM) | MIC [3]: 16 µg/mL (≈ 40 µM) | MIC [4]: 16 µg/mL (≈ 40 µM) | MIC [5]: 16 µg/mL (≈ 40 µM) | MIC [6]: 16 µg/mL (≈ 40 µM) | MIC [7]: 16 µg/mL (≈ 40 µM) | MIC [8]: 16 µg/mL (≈ 40 µM) | MIC [9]: > 32 µg/mL | MIC [11]: 16 µg/mL (≈ 40 µM) | MIC [12]: 16 µg/mL (≈ 40 µM) | MIC [13]: 16 µg/mL (≈ 40 µM)
SMILES: CC(NC(=O)c1c[nH]c2ccc(F)cc12)c1c[nH]c2ccc(Br)cc12 (centres unmarked) [Compound 5, N-(1-(5-bromo-1H-indol-3-yl)ethyl)-5-fluoro-1H-indole-3-carboxamide]

SMILES: CC(C)(C)OC(=O)NCC(NC(=O)c1c[nH]c2ccccc12)c1c[nH]c2ccc(Br)cc12 (centres unmarked) [Compound 3b, tert-Butyl (2-(5-bromo-1H-indol-3-yl)-2-(1H-indole-3-carboxamido)ethyl)carbamate]
MIC [1]: 8 µg/mL (≈ 16.1 µM) | MIC [2]: 8 µg/mL (≈ 16.1 µM) | MIC [3]: 8 µg/mL (≈ 16.1 µM) | MIC [4]: 8 µg/mL (≈ 16.1 µM) | MIC [5]: 8 µg/mL (≈ 16.1 µM) | MIC [6]: 8 µg/mL (≈ 16.1 µM) | MIC [7]: 8 µg/mL (≈ 16.1 µM) | MIC [8]: 8 µg/mL (≈ 16.1 µM) | MIC [9]: 8 µg/mL (≈ 16.1 µM) | MIC [10]: 8 µg/mL (≈ 16.1 µM) | MIC [11]: 8 µg/mL (≈ 16.1 µM) | MIC [12]: 8 µg/mL (≈ 16.1 µM) | MIC [13]: 8 µg/mL (≈ 16.1 µM) | inhibition at 10 µM [30]: 30 ± 2% | inhibition at 1 µM [30]: 0% | inhibition at 10 µM [31]: 41 ± 6% | inhibition at 1 µM [31]: 0% | inhibition at 10 µM [32]: 8 ± 5% | inhibition at 1 µM [32]: 7% | IC50 ([33]; first value): 15 µM | IC50 ([33]; second value): 11.2 µM
